In US20240108006A1, “PESTICIDALLY ACTIVE HETEROAROMATIC COMPOUNDS” (SYNGENTA CROP PROTECTION AG, priority 2021, published 2024):

What was measured:
Type in all cases: in vivo
[1] = system: Chilo suppressalis; test: Example B1: Chilo suppressalis (striped rice stemborer), artificial diet, L2 larvae; settings: 144 h, application rate of 200 ppm, 6 days after infestation, read-out: control in at least one of the three categories (mortality, anti-feedant effect, or growth inhibition)
Outline: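 L2 larvae (6-8 per well) were placed on dried artificial diet that had been dosed with aqueous dilutions of 10,000 ppm DMSO stock solutions. After 6 days, control was credited if mortality, antifeedant effect or growth inhibition was higher than in untreated samples.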

[2] = system: Euschistus heros; test: Example B3: Euschistus heros (neotropical brown stink bug), soybean leaves, N2 nymphs; settings: 120 h, application rate of 200 ppm, 5 days after infestation, read-out: control in at least one of the two categories (mortality or growth inhibition)
Protocol: Example B3: Euschistus heros (Neotropical Brown Stink Bug)
Soybean leaves on agar in 24-well microtiter plates were sprayed with aqueous test solutions prepared from 10,000 ppm DMSO stock solutions. After drying the leaves were infested with N2 nymphs. The samples were assessed for mortality and growth inhibition in comparison to untreated samples 5 days after infestation.
The following compounds gave an effect of at least 80% control in at least one of the two categories (mortality or growth inhibition) at an application rate of 200 ppm: […]

[3] = system: Myzus persicae; test: Example B6: Myzus persicae (green peach aphid), systemic activity, pea seedlings; settings: 144 h, test rate of 24 ppm, 6 days after placing seedlings into test solutions
Protocol: Example B6: Myzus persicae (Green Peach Aphid). Systemic Activity
Roots of pea seedlings infested with an aphid population of mixed ages were placed directly into aqueous test solutions prepared from 10,000 DMSO stock solutions. The samples were assessed for mortality 6 days after placing seedlings into test solutions.

[4] = system: Myzus persicae; test: Example B7: Myzus persicae (green peach aphid), intrinsic activity, sucrose solution 24-well; settings: 120 h, application rate of 12.5 ppm, 5 days after infestation, read-out: control (mortality)
Outline: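 Compounds from 10,000 ppm DMSO stocks were mixed into sucrose solution in wells at a rate of 12.5 ppm. Aphid-infested pea seedlings were placed on a Parafilm membrane over the solution, so aphids fed through it. Mortality was scored 5 days after infestation.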

[5] = system: Plutella xylostella; test: Example B8: Plutella xylostella (diamond back moth), artificial diet 24-well, eggs; settings: 192 h, application rate of 200 ppm, 8 days after infestation, read-out: effect in at least one of the two categories (mortality or growth inhibition)
Outline: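 Plutella eggs placed onto dried, compound-treated artificial diet, the aqueous test solutions diluted from 10,000 ppm DMSO stocks. Eight days post-infestation, larvae rated for mortality and growth inhibition relative to untreated controls.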

[6] = system: Myzus persicae; test: Example B5: Myzus persicae (green peach aphid), feeding/contact activity; settings: 144 h, application rate of 200 ppm, 6 days after infestation
Protocol: Example B5: Myzus persicae (Green Peach Aphid):Feeding/Contact Activity
Sunflower leaf discs were placed onto agar in a 24-well microtiter plate and sprayed with aqueous test solutions prepared from 10,000 ppm DMSO stock solutions. After drying, the leaf discs were infested with an aphid population of mixed ages. The samples were assessed for mortality 6 days after infestation.

[7] = system: Spodoptera littoralis; test: Example B9: Spodoptera littoralis (Egyptian cotton leaf worm), cotton leaf discs, L1 larvae; settings: foliar, 72 h, application rate of 200 ppm, 3 days after infestation, read-out: control in at least one of the three categories (mortality, anti-feedant effect, or growth inhibition)
Outline: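 Five L1 larvae placed on sprayed, dried cotton leaf discs; spray solutions aqueous, from 10,000 ppm DMSO stocks. Control given when mortality, anti-feedant effect or growth inhibition exceeds untreated samples at 3 days.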

[8] = system: Diabrotica balteata; test: Example B2: Diabrotica balteata (corn root worm), maize sprouts, L2 larvae; settings: 96 h, application rate of 200 ppm, 4 days after infestation, read-out: control in at least one of the two categories (mortality or growth inhibition)
Outline: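 Maize sprouts on agar sprayed with aqueous test solutions made from 10,000 ppm DMSO stocks, dried, then infested with 6 to 10 L2 larvae per well. Mortality and growth inhibition assessed versus untreated samples 4 days after infestation; application rate 200 ppm.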

[9] = system: Frankliniella occidentalis; test: Example B4: Frankliniella occidentalis (western flower thrips), feeding/contact activity; settings: 168 h, application rate of 200 ppm, 7 days after infestation
Protocol: Example B4: Frankliniella occidentalis (Western Flower Thrips):Feeding/Contact Activity
Sunflower leaf discs were placed on agar in 24-well microtiter plates and sprayed with aqueous test solutions prepared from 10,000 DMSO stock solutions. After drying the leaf discs were infested with a Frankliniella population of mixed ages. The samples were assessed for mortality 7 days after infestation.

[10] = system: Myzus persicae; test: Example B11: Myzus persicae (green peach aphid), sucrose solution 96-well; settings: 120 h, application rate of 50 ppm, 5 days after infestation
Text: Example B11: Myzus persicae (Green Peach Aphid)
Test compounds prepared from 10,000 ppm DMSO stock solutions were applied by a liquid handling robot into 96-well microtiter plates and mixed with a sucrose solution. Parafilm was stretched over the 96-well microtiter plate and a plastic stencil with 96 holes was placed onto the plate. Aphids were sieved into the wells directly onto the Parafilm. The infested plates were closed with a gel blotting card and a second plastic stencil and then turned upside down. The samples were assessed for mortality 5 days after infestation.

[11] = system: Plutella xylostella; test: Example B12: Plutella xylostella (diamondback moth), artificial diet 96-well; settings: 216 h, application rate of 500 ppm, 9 days after infestation
Protocol: Example B12: Plutella xylostella (Diamondback Moth)
96-well microtiter plates containing artificial diet were treated with aqueous test solutions, prepared from 10,000 ppm DMSO stock solutions, by a liquid handling robot. After drying, eggs (-30 per well) were infested onto a netted lid which was suspended above the diet. The eggs hatch and L1 larvae move down to the diet. The samples were assessed for mortality 9 days after infestation.
The following compounds gave an effect of at least 80% average mortality at an application rate of 500 ppm: […]

C[C@@H](c1ncnn1-c1ncccn1)N(C)C(=O)Nc1cnc(C(F)(F)F)cc1Cl [Example P397, 3-[4-chloro-6-(trifluoromethyl)-3-pyridyl]-1-methyl-1-[(1S)-1-(2-pyrimidin-2-yl-1,2,4-triazol-3-yl)ethyl]urea]
≥ 80%: percent control (mortality, anti-feedant effect or growth inhibition) at 200 ppm [1] | percent control (mortality or growth inhibition) at 200 ppm [2] | mortality at 24 ppm [3] | mortality at 12.5 ppm [4] | percent effect (mortality or growth inhibition) at 200 ppm [5]

CC(NC(=O)Nc1cnc(C(F)(F)F)cc1Cl)c1nccnc1-c1ncccn1 (centres unmarked) [Example P244, 1-[4-chloro-6-(trifluoromethyl)-3-pyridyl]-3-[1-(3-pyrimidin-2-ylpyrazin-2-yl)ethyl]urea]
≥ 80%: percent control (mortality, anti-feedant effect or growth inhibition) at 200 ppm [1] | mortality at 200 ppm [6] | mortality at 24 ppm [3] | mortality at 12.5 ppm [4] | percent effect (mortality or growth inhibition) at 200 ppm [5] | percent control (mortality, anti-feedant effect or growth inhibition) at 200 ppm [7]

C[C@H](NC(=O)Nc1cnc(C(F)(F)F)cc1Cl)c1ncnn1-c1ncccn1 [Example P103, 1-[4-chloro-6-(trifluoromethyl)-3-pyridyl]-3-[(1S)-1-(2-pyrimidin-2-yl-1,2,4-triazol-3-yl)ethyl]urea]
≥ 80%: percent control (mortality, anti-feedant effect or growth inhibition) at 200 ppm [1] | percent control (mortality or growth inhibition) at 200 ppm [8] | percent control (mortality or growth inhibition) at 200 ppm [2] | mortality at 200 ppm [9] | mortality at 200 ppm [6] | mortality at 24 ppm [3] | mortality at 12.5 ppm [4] | percent effect (mortality or growth inhibition) at 200 ppm [5] | percent control (mortality, anti-feedant effect or growth inhibition) at 200 ppm [7] | mortality at 50 ppm [10]

CC(NC(=O)Nc1ccc(Cl)cc1C(F)(F)F)c1ncnn1-c1ncccn1 (centres unmarked) [Example P6, 1-[4-chloro-2-(trifluoromethyl)phenyl]-3-[1-(2-pyrimidin-2-yl-1,2,4-triazol-3-yl)ethyl]urea]
≥ 80%: percent control (mortality, anti-feedant effect or growth inhibition) at 200 ppm [1] | percent control (mortality or growth inhibition) at 200 ppm [8] | mortality at 12.5 ppm [4] | percent effect (mortality or growth inhibition) at 200 ppm [5] | percent control (mortality, anti-feedant effect or growth inhibition) at 200 ppm [7] | mortality at 50 ppm [10] | mortality at 500 ppm [11]

C[C@H](NC(=O)N(C)c1cnc(C(F)(F)F)cc1Cl)c1ncnn1-c1ncccn1 [Example P235, 1-[4-chloro-6-(trifluoromethyl)-3-pyridyl]-1-methyl-3-[(1S)-1-(2-pyrimidin-2-yl-1,2,4-triazol-3-yl)ethyl]urea]
≥ 80%: percent control (mortality, anti-feedant effect or growth inhibition) at 200 ppm [1] | percent control (mortality or growth inhibition) at 200 ppm [2] | mortality at 200 ppm [9] | mortality at 200 ppm [6] | mortality at 24 ppm [3] | mortality at 12.5 ppm [4] | percent effect (mortality or growth inhibition) at 200 ppm [5]

C[C@H](NC(=O)N(C)c1cnc(C(F)(F)F)cc1Br)c1ncnn1-c1ncccn1 [Example P273, 1-[4-bromo-6-(trifluoromethyl)-3-pyridyl]-1-methyl-3-[(1S)-1-(2-pyrimidin-2-yl-1,2,4-triazol-3-yl)ethyl]urea]
≥ 80%: percent control (mortality, anti-feedant effect or growth inhibition) at 200 ppm [1] | percent control (mortality or growth inhibition) at 200 ppm [2] | mortality at 24 ppm [3] | mortality at 12.5 ppm [4] | percent effect (mortality or growth inhibition) at 200 ppm [5] | percent control (mortality, anti-feedant effect or growth inhibition) at 200 ppm [7]

CC(NC(=O)Nc1ccc(C(F)(F)F)cc1Cl)c1ncnn1-c1ccc(C#N)cn1 (centres unmarked) [Example P4, 1-[2-chloro-4-(trifluoromethyl)phenyl]-3-[1-[2-(5-cyano-2-pyridyl)-1,2,4-triazol-3-yl]ethyl]urea]
≥ 80%: percent control (mortality, anti-feedant effect or growth inhibition) at 200 ppm [1] | percent control (mortality or growth inhibition) at 200 ppm [8] | percent effect (mortality or growth inhibition) at 200 ppm [5] | percent control (mortality, anti-feedant effect or growth inhibition) at 200 ppm [7] | mortality at 500 ppm [11]

C[C@H](NC(=O)Nc1cc(OC(F)(F)C(F)F)c(Cl)cc1Cl)c1ncnn1-c1ncccn1 [Example P46, 1-[2,4-dichloro-5-(1,1,2,2-tetrafluoroethoxy)phenyl]-3-[(1S)-1-(2-pyrimidin-2-yl-1,2,4-triazol-3-yl)ethyl]urea]
≥ 80%: percent control (mortality, anti-feedant effect or growth inhibition) at 200 ppm [1] | percent control (mortality or growth inhibition) at 200 ppm [8] | percent control (mortality or growth inhibition) at 200 ppm [2] | mortality at 200 ppm [6] | mortality at 12.5 ppm [4] | percent effect (mortality or growth inhibition) at 200 ppm [5] | percent control (mortality, anti-feedant effect or growth inhibition) at 200 ppm [7] | mortality at 50 ppm [10]

COc1cc(C(F)(F)F)ncc1NC(=O)N[C@@H](C)c1ncnn1-c1ncccn1 [Example P348, 1-[4-methoxy-6-(trifluoromethyl)-3-pyridyl]-3-[(1S)-1-(2-pyrimidin-2-yl-1,2,4-triazol-3-yl)ethyl]urea]
≥ 80%: percent control (mortality, anti-feedant effect or growth inhibition) at 200 ppm [1] | percent control (mortality or growth inhibition) at 200 ppm [2] | mortality at 200 ppm [6] | mortality at 24 ppm [3] | mortality at 12.5 ppm [4] | percent control (mortality, anti-feedant effect or growth inhibition) at 200 ppm [7]

C[C@H](NC(=O)N1CCc2cc(C(F)(F)F)ncc21)c1ncnn1-c1ncccn1 [Example P172, N-[(1S)-1-(2-pyrimidin-2-yl-1,2,4-triazol-3-yl)ethyl]-5-(trifluoromethyl)-2,3-dihydropyrrolo[2,3-c]pyridine-1-carboxamide]
≥ 80%: percent control (mortality, anti-feedant effect or growth inhibition) at 200 ppm [1] | percent control (mortality or growth inhibition) at 200 ppm [8] | percent control (mortality or growth inhibition) at 200 ppm [2] | mortality at 200 ppm [6] | mortality at 24 ppm [3] | mortality at 12.5 ppm [4] | percent effect (mortality or growth inhibition) at 200 ppm [5] | percent control (mortality, anti-feedant effect or growth inhibition) at 200 ppm [7]
